Columns and labels:
[1] = system: serum triglyceride; assay: Antihyperlipidemic activity: serum triglyceride levels in male CF1 mice; format: in vivo; settings: 8 mg/kg intraperitoneally
Experimental: (§1) Compounds to be tested were suspended in 1% aqueous carboxymethylcellulose,homogenized and administered to male CF1 mice (25 g) intraperitoneally for 16d. On days 9 and 16, blood was obtained by tail vein bleeding, and the serum was separated by centrifugation for three minutes. The serum cholesterol levels were determined by a modification of the Liebermann-Burchard reaction in accordance with known techniques. See A. Ness, et al., Clin. Chim. Acta 10, 229 (1964). Serum triglyceride levels were determined with a commercial kit, the Fisher Hycel Triglyceride Test Kit, for a different group of animals bled on day 16.

[2] = system: inflammatory response (carrageenan, hind foot); assay: Anti-inflammatory activity: carrageenan-induced paw inflammation in CF1 male mice; format: in vivo; settings: 8 mg/kg intraperitoneally 3 hours and 30 minutes prior to carrageenan; feet excised after 3 hours
Experimental: Anti-Inflammatory Activity CF1 male mice (~25 g) were administered test drugs at 5-40 mg/kg in 0.05% Tween 80-H2 O intraperitoneally 3 hours prior to and 30 minutes prior to the injection of 0.2 ml of 1% carrageenan in 0.9% saline into the plantar surface of the right hind foot. Saline was injected into the left hind foot, which serves as a base line. After 3 hours, both feet were excised at the tibiotarsal (ankle) joint according to standard procedures. See C. Winter et al., Proc. Soc. Expt. Biol Med. 544, 111 (1962); A. Roszkawski et al., J. Pharm. Exp. Ther. 179, 114 (1971). Control mice afforded a 78±3 mg increase in paw weight.

[3] = system: KB epidermoid oral nesopharnyx; assay: Cytotoxic activity, KB epidermoid oral nesopharnyx; format: cell-based; settings: cell density estimated when controls converged
Experimental: The cytotoxic activity of oligonucleoside boranophosphates of the present invention was tested on the following neoplastic cell lines:
6. KB epidermoid oral nesopharnyx. R. Geran, supra; H. Eagle, Proc. Soc. Expt. Biol. 89, 362 (1955) (grown in EMEM+5% calf serum).
The cytotoxic screens were conducted according to NIH protocols, see E. Huang et al., J. Pharm. Sci. 61, 108 (1972), with 10^4 cells, growth medium, antibiotics and drugs from 0.5 to 100 μg/ml final concentration. For the L1210, Hela-S, amd Tmolt, (i.e. the suspended cells), the incubations were conducted in sterile test tubes in a final volume of 1 ml for 72 hr at 37° C. in a CO2 incubator. The cells on the third day were still in log growth phase. The number of cells/ml are determined using trypan blue exclusion and a hemocytometer. See, e.g., R. Geran, supra. For solid tumors 1×10^4 cells are plated with 1 ml of medium+ antibiotics and the other components of growth. When the controls have converged (≈95%) then the density of the cells is estimated and the ED50 values calculated.

[4] = system: serum cholesterol; assay: Antihyperlipidemic activity: serum cholesterol levels in male CF1 mice; format: in vivo; settings: for Percent Inhibition, Serum Cholesterol, Day 9: Day 9, 8 mg/kg intraperitoneally; for Percent Inhibition, Serum Cholesterol, Day 16: Day 16, 8 mg/kg intraperitoneally
Experimental: as §1

Substance	Percent Inhibition, Serum Triglyceride, Day 16 [1] [%]	Percent Inhibition of the inflammatory response [2] [%]	ED50, KB [3] [µg/mL]	Percent Inhibition, Serum Cholesterol, Day 9 [4] [%]	Percent Inhibition, Serum Cholesterol, Day 16 [4] [%]
thymidylyl[3'-5']-(3'-acetylthymidylyl) (borane)phosphonate methyl ester [Compound A]	12	37	3.51	38	46
thymidylyl[3'-5']thymidylyl[3'-5'](3'-acetylthymidylyl) boranephosphonate dimethyl ester [Compound T]	18	40	0.61	33	32
